We go through 20 molecules from patent US20220324835A1 (Nurix Therapeutics, Inc., priority 2018, published 2022).

The subject of assay [1] is T-cell. Put plainly: CD25 cell surface staining on T-cells stimulated with anti-CD3 antibody alone (Biological Example 2). The format is cell-based, human. As to conditions: T-cell, fold change over baseline, primary human total T-cells, read-out: CD25 staining Anti-CD3 stimulation; for fold induction at 1 µM: 1 μM Cbl-b inhibitor; for fold induction at 8 µM: 8 μM Cbl-b inhibitor.

The test system of assay [2] is T-cell. Put plainly: IL-2 secretion from T-cells stimulated with anti-CD3 antibody alone (Biological Example 2). In kind it is cell-based, human. The settings on record: T-cell, fold change over baseline, primary human total T-cells, read-out: IL-2 secretion Anti-CD3 stimulation; for fold induction at 1 µM: 1 μM Cbl-b inhibitor; for fold induction at 8 µM: 8 μM Cbl-b inhibitor.

Molecules are shown by their SMILES. Structures can show the parent of a compound that is named as a salt.

For the molecule `C[C@H](Sc1nncn1C)c1cccc(NC(=O)c2ccc(C#N)c(C3CC3)n2)c1` [Compound 92, 5-cyano-6-cyclopropyl-N-[3-[(1S)-1-[(4-methyl-1,2,4-triazol-3-yl)sulfanyl]ethyl]phenyl]pyridine-2-carboxamide], the figures for the fold induction at 1 µM with T-cell [1] and with T-cell [2] were 0.601 to 0.8 and below 0.05, respectively. Also, the fold induction at 8 µM is above 1 with T-cell [1] and 0.101 to 0.15 with T-cell [2].

For `COc1ccc(C(=O)Nc2cccc([C@H](C)Sc3nncn3C)c2)nc1C1CC1` [Compound 93, 6-cyclopropyl-5-methoxy-N-[3-[(1S)-1-[(4-methyl-1,2,4-triazol-3-yl)sulfanyl]ethyl]phenyl]pyridine-2-carboxamide], the fold induction at 1 µM in the assay with T-cell [1] is 0.601 to 0.8; in the assay on T-cell [2] it was below 0.05. For the same molecule, the fold induction at 8 µM is above 1 in the assay with T-cell [1] and 0.101 to 0.15 in the assay with T-cell [2].

In the case of `C[C@H](Cc1nncn1C)c1cccc(NC(=O)c2cc(C3CC3)cc(C(F)(F)F)n2)c1` [Compound 191, (R)-4-cyclopropyl-N-(3-(1-(4-methyl-4H-1,2,4-triazol-3-yl)propan-2-yl)phenyl)-6-(trifluoromethyl)picolinamide], in the assay on T-cell [1], the fold induction at 1 µM is above 1 and the fold induction at 8 µM is above 1. Also, in the assay with T-cell [2], the fold induction at 1 µM is above 0.201 and the fold induction at 8 µM is above 0.201.

Consider `C[C@H](Cc1nncn1C)c1cccc(NC(=O)c2cc(C3CC3)nc(C3CC3)n2)c1` [Compound 193, (R)-2,6-dicyclopropyl-N-(3-(1-(4-methyl-4H-1,2,4-triazol-3-yl)propan-2-yl)phenyl)pyrimidine-4-carboxamide], for which, in the assay with T-cell [1], the fold induction at 1 µM was above 1 and the fold induction at 8 µM is above 1. In addition, in the assay on T-cell [2], the fold induction at 1 µM is above 0.201 and the fold induction at 8 µM was above 0.201.

Consider `Cc1cc(C(=O)Nc2cccc([C@H](C)Cc3nncn3C)c2)nc(C(F)(F)F)n1` [Compound 194, (R)-6-methyl-N-(3-(1-(4-methyl-4H-1,2,4-triazol-3-yl)propan-2-yl)phenyl)-2-(trifluoromethyl)pyrimidine-4-carboxamide], for which, in the assay on T-cell [1], the fold induction at 1 µM fell in the range of 0.801 to 1 and the fold induction at 8 µM was above 1. In the assay on T-cell [2], the fold induction at 1 µM was above 0.201 and the fold induction at 8 µM was above 0.201.

Consider `C[C@H](Cc1nncn1C)c1cccc(NC(=O)c2nc3c(C(F)(F)F)cccc3[nH]2)c1` [Compound 196, N-[3-[(1R)-1-methyl-2-(4-methyl-1,2,4-triazol-3-yl)ethyl]phenyl]-4-(trifluoromethyl)-1H-benzimidazole-2-carboxamide], for which, in the assay on T-cell [1], the fold induction at 1 µM was above 1 and the fold induction at 8 µM is above 1. Moreover, in the assay with T-cell [2], the fold induction at 1 µM is above 0.201 and the fold induction at 8 µM was above 0.201.

Take `C[C@H](Cc1nncn1C)c1cccc(NC(=O)c2ccnc(C3CC3)n2)c1` [Compound 199, (R)-2-cyclopropyl-N-(3-(1-(4-methyl-4H-1,2,4-triazol-3-yl)propan-2-yl)phenyl)pyrimidine-4-carboxamide]: in the assay on T-cell [1], the fold induction at 1 µM is above 1 and the fold induction at 8 µM is above 1. Further, in the assay on T-cell [2], the fold induction at 1 µM was above 0.201 and the fold induction at 8 µM is above 0.201.

In the case of `C[C@H](Cc1nncn1C)c1cccc(NC(=O)c2ccc(CO)c(C3CC3)n2)c1` [Compound 203, 6-cyclopropyl-5-(hydroxymethyl)-N-[3-[(2R)-1-(4-methyl-4H-1,2,4-triazol-3-yl)propan-2-yl]phenyl]pyridine-2-carboxamide], in the assay on T-cell [1], the fold induction at 1 µM was above 1 and the fold induction at 8 µM was above 1. In addition, in the assay with T-cell [2], the fold induction at 1 µM is above 0.201 and the fold induction at 8 µM is above 0.201.

Take `CC(=O)N1CCN(c2ccc3cnc(C(=O)Nc4cccc([C@H](C)Cc5nncn5C)c4)cc3c2)CC1` [Compound 211, (R)-6-(4-acetylpiperazin-1-yl)-N-(3-(1-(4-methyl-4H-1,2,4-triazol-3-yl)propan-2-yl)phenyl)isoquinoline-3-carboxamide 2,2,2-trifluoroacetate]: in the assay with T-cell [1], the fold induction at 1 µM lay within 0.601 to 0.8 and the fold induction at 8 µM is above 1. Further, in the assay with T-cell [2], the fold induction at 1 µM is above 0.201 and the fold induction at 8 µM is above 0.201.

On to `C[C@H](Cc1nncn1C)c1cccc(NC(=O)c2cc(C(=O)N3CC[C@H](O)C3)cc(C(F)(F)F)n2)c1` [Compound 220, 4-((S)-3-hydroxypyrrolidine-1-carbonyl)-N-(3-((R)-1-(4-methyl-4H-1,2,4-triazol-3-yl)propan-2-yl)phenyl)-6-(trifluoromethyl)picolinamide], for which, in the assay with T-cell [1], the fold induction at 1 µM is above 1 and the fold induction at 8 µM is above 1. In the assay on T-cell [2], the fold induction at 1 µM was above 0.201 and the fold induction at 8 µM was above 0.201.

With `C[C@H](Cc1nncn1C)c1cccc(N2Cc3c(cc(C(=O)N4CC[C@H](O)C4)cc3C(F)(F)F)C2=O)c1` [Compound 274, 6-((S)-3-hydroxypyrrolidine-1-carbonyl)-2-(3-((R)-1-(4-methyl-4H-1,2,4-triazol-3-yl)propan-2-yl)phenyl)-4-(trifluoromethyl)isoindolin-1-one], the fold induction at 1 µM in the assay on T-cell [1] was in the range of 0.801 to 1; in the assay on T-cell [2], 0.151 to 0.2. Besides, the fold induction at 8 µM in the assay with T-cell [1] was above 1; in the assay with T-cell [2] it was above 0.201.

As for `C[C@H](Cc1nncn1C)c1cccc(N2Cc3c(cc(C(=O)N4C[C@@H](O)C[C@H]4C)cc3C(F)(F)F)C2=O)c1` [Compound 275, 6-((2R,4S)-4-hydroxy-2-methylpyrrolidine-1-carbonyl)-2-(3-((R)-1-(4-methyl-4H-1,2,4-triazol-3-yl)propan-2-yl)phenyl)-4-(trifluoromethyl)isoindolin-1-one], the fold induction at 1 µM is 0.801 to 1 in the assay on T-cell [1] and above 0.201 in the assay on T-cell [2]. In addition, the values for the fold induction at 8 µM with T-cell [1] and in the assay with T-cell [2] were above 1 and above 0.201, respectively.

Take `C[C@H](Cc1nncn1C)c1cccc(N2Cc3c(cc(C(=O)N4CC(O)C4)cc3C(F)(F)F)C2=O)c1` [Compound 276, (R)-6-(3-hydroxyazetidine-1-carbonyl)-2-(3-(1-(4-methyl-4H-1,2,4-triazol-3-yl)propan-2-yl)phenyl)-4-(trifluoromethyl)isoindolin-1-one]: in the assay on T-cell [1], the fold induction at 1 µM is 0.801 to 1 and the fold induction at 8 µM is above 1. For the same molecule, in the assay on T-cell [2], the fold induction at 1 µM fell in the range of 0.051 to 0.1 and the fold induction at 8 µM lay in the range of 0.151 to 0.2.

As to `C[C@H](Cc1nncn1C)c1cccc(N2Cc3c(cc(C(=O)N4CC[C@H](O)C4)cc3C3CC3)C2=O)c1` [Compound 277, 4-cyclopropyl-6-((S)-3-hydroxypyrrolidine-1-carbonyl)-2-(3-((R)-1-(4-methyl-4H-1,2,4-triazol-3-yl)propan-2-yl)phenyl)isoindolin-1-one], in the assay with T-cell [1], the fold induction at 1 µM lay within 0.801 to 1 and the fold induction at 8 µM is above 1. Moreover, in the assay with T-cell [2], the fold induction at 1 µM lay within 0.051 to 0.1 and the fold induction at 8 µM was in the range of 0.101 to 0.15.

As for `Cn1cnnc1CC1(c2cccc(N3Cc4c(cccc4C(F)(F)F)C3=O)c2)CC1` [Compound 299, 2-(3-(1-((4-methyl-4H-1,2,4-triazol-3-yl)methyl)cyclopropyl)phenyl)-4-(trifluoromethyl)isoindolin-1-one], the fold induction at 1 µM in the assay with T-cell [1] was above 1; in the assay with T-cell [2] it was 0.051 to 0.1. For the same molecule, the fold induction at 8 µM in the assay on T-cell [1] was above 1; in the assay with T-cell [2], above 0.201.

For `Cn1cnnc1CC(C)(C)c1cccc(N2Cc3c(cccc3C(F)(F)F)C2=O)c1` [Compound 300, 2-(3-(2-methyl-1-(4-methyl-4H-1,2,4-triazol-3-yl)propan-2-yl)phenyl)-4-(trifluoromethyl)isoindolin-1-one], the fold induction at 1 µM was 0.801 to 1 in the assay on T-cell [1] and above 0.201 with T-cell [2]. Moreover, the fold induction at 8 µM in the assay with T-cell [1] was above 1; with T-cell [2], above 0.201.

`Cn1cnnc1CC1(c2cccc(N3Cc4c(cccc4C(F)(F)F)C3=O)c2)COC1` [Compound 301, 2-[3-[3-[(4-methyl-1,2,4-triazol-3-yl)methyl]oxetan-3-yl]phenyl]-4-(trifluoromethyl)isoindolin-1-one]: the fold induction at 1 µM in the assay with T-cell [1] was 0.801 to 1; with T-cell [2], 0.051 to 0.1. Also, the fold induction at 8 µM with T-cell [1] was above 1; in the assay with T-cell [2] it was 0.101 to 0.15.

For the molecule `C[C@H](Sc1nncn1C)c1cccc(NC(=O)c2cc3cc(OCC(=O)NCCN)ccc3cn2)c1` [Compound 311, 6-[2-(2-aminoethylamino)-2-oxo-ethoxy]-N-[3-[(1S)-1-[(4-methyl-1,2,4-triazol-3-yl)sulfanyl]ethyl]phenyl]isoquinoline-3-carboxamide hydrochloride], in the assay on T-cell [1], the fold induction at 1 µM was in the range of 0.601 to 0.8 and the fold induction at 8 µM was in the range of 0.601 to 0.8. Besides, in the assay on T-cell [2], the fold induction at 1 µM was below 0.05 and the fold induction at 8 µM is below 0.05.

For the molecule `Cc1cnnn1C[C@@H](C)c1cccc(NC(=O)c2cccc(C(F)(F)F)n2)c1` [Compound 312a, (S)-N-(3-(1-(5-methyl-1H-1,2,3-triazol-1-yl)propan-2-yl)phenyl)-6-(trifluoromethyl)picolinamide], the fold induction at 1 µM lay in the range of 0.601 to 0.8 in the assay on T-cell [1] and 0.051 to 0.1 in the assay with T-cell [2]. Besides, the fold induction at 8 µM with T-cell [1] lay within 0.801 to 1; with T-cell [2], 0.151 to 0.2.

For `C[C@H](Cc1nncn1C)c1cccc(NC(=O)c2nc3c(C4CC4)cccc3[nH]2)c1` [Compound 319, 4-cyclopropyl-N-[3-[(1R)-1-methyl-2-(4-methyl-1,2,4-triazol-3-yl)ethyl]phenyl]-1H-benzimidazole-2-carboxamide], in the assay with T-cell [1], the fold induction at 1 µM is 0.601 to 0.8 and the fold induction at 8 µM was 0.801 to 1. In the assay with T-cell [2], the fold induction at 1 µM lay within 0.051 to 0.1 and the fold induction at 8 µM was above 0.201.
